In ChEMBL document CHEMBL1130859, “Inhibitors of the bacterial cell wall biosynthesis enzyme MurD” (Bioorg Med Chem Lett, 1998):

Assay: Compound was tested for inhibition against UDP-N-acetylmuramoyl-L-alanyl-D-glutamate synthetase isolated from Escherichia coli

Structure (SMILES) | IC50
CC(=O)NC1C(OP(=O)(O)OP(=O)(O)OC[C@H]2OC(n3cc(I)c(=O)[nH]c3=O)[C@H](O)[C@@H]2O)OC(CO)C(O)C1O[C@H](C)C(=O)N[C@@H](C)P(=O)(O)CC(CCC(=O)O)C(=O)O (some centres not stated) [17] | 4 nM

Assay: Compound was tested for inhibition against UDP-N-acetylmuramoyl-L-alanyl-D-glutamate synthetase
Parameters: species or system Escherichia coli

Structure (SMILES) | IC50
CC(=O)NC1C(O)OC(CO)C(O)C1O[C@H](C)C(=O)N[C@@H](C)P(=O)(O)CC(CCC(=O)O)C(=O)O (some centres not stated) | 782000 nM
CC(=O)NC1C(OP(=O)(O)O)OC2COC(c3ccccc3)OC2C1O[C@H](C)C(=O)N[C@@H](C)P(=O)(O)CC(CCC(=O)O)C(=O)O (some centres not stated) | 455 nM
CC(NC(=O)CCCCCOP(=O)(O)OP(=O)(O)OC[C@H]1O[C@@H](n2ccc(=O)[nH]c2=O)[C@H](O)[C@@H]1O)P(=O)(O)CC(CCC(=O)O)C(=O)O (some centres not stated) | 680 nM
CC(=O)NC1C(OP(=O)(O)OP(=O)(O)OC[C@H]2OC(n3ccc(=O)[nH]c3=O)[C@H](O)[C@@H]2O)OC(CO)C(O)C1O[C@H](C)C(=O)N[C@@H](C)P(=O)(O)CC(CCC(=O)O)C(=O)O (some centres not stated) | < 1 nM
CC(=O)NC1C(OP(=O)(O)O)OC(CO)C(O)C1O[C@H](C)C(=O)N[C@@H](C)P(=O)(O)CC(CCC(=O)O)C(=O)O (some centres not stated) | 20 nM
CC(NC(=O)CCCCCOP(=O)(O)O)P(=O)(O)CC(CCC(=O)O)C(=O)O (configuration not stated) | 29000 nM
